Structures can show the parent of a compound that is named as a salt. Where two headings read alike, the source gives them in different places.
Assays:
NLRP3 inflammasome = test: IL-1β secretion assay (LPS-primed, nigericin-activated THP-1 cells, MSD readout); format: cell-based; conditions: read-out: IL1b IC50
In short: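 THP-1 monocytes primed with LPS (10 ng/mL, 3 h, 37 °C), then co-incubated 2 h with serially diluted compound and nigericin 10 μM (final). Supernatant IL-1β measured by MSD electrochemiluminescence immunoassay. IC50 derived from four-parameter logistic fit of % inhibition versus concentration.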

TNF-α secretion = TNF-α secretion assay (PMA-differentiated THP-1 cells, LPS-triggered, MSD readout); format: cell-based; conditions: LPS 24 h; for inhibition at 3 µM / inhibition at 10 µM: Homo sapiens
Description: Monocytic THP-1 cells (DSMZ) were maintained in RPMI media (RPMI 1640 Medium (1×) +10% FBS, biowest S181H). Cells were then differentiated at 160,000 cells per well in 96-well flat bottom cell culture plates with RPMI+0.1% Bovine Serum Albumin solution and 0.5 μM phorbol 12-myristate 13-acetate (PMA; Sigma, ref:P8139) overnight at 37° C. Experimental compounds were prepared and added as described above. TNF-α secretion was triggered by the addition of 0.5 μg/mL LPS (invivoGen, tlrl-3pelps) and cells were incubated for 24 h. 2.5 μL supernatant was removed, and TNF-α levels were monitored using an MSD assay (mesoscale, K15049) according to manufacturers' instructions.
IC50 values were calculated from the plot of percentage of inhibition versus the inhibitor concentration by a logistics fit according to: y=A2+(A1−A2)/(1+(x/IC50)^p) where y is the %-inhibition at the inhibitor concentration, x. A1 is the lowest inhibition value, i.e., 0%, and A2 the maximum inhibition value, i.e., 100%. The exponent, p, is the Hill coefficient. The curve fitting was conducted with an internally developed software.

[1] = Brain over plasma ratio evaluation; format: in vivo; conditions: mouse, brain and plasma, iv; female C57B16 mice, single i.v. 1 mg/kg, 0.25 h post dosing, geometric mean of 3 animals
Description: Brain Over Plasma Ratio Evaluation
A solution of 3 mg of compound in a generic vehicle (Glycofurol/solutol/Dextrose 5%: 10%/5%/85%, adjusted at pH3), final concentration 0.2 mg/ml, are stirred overnight at ambient temperature whilst protected from light.
Female C57B16 mice between the ages of 8-12 weeks are administered with the prepared solution, as single intravenous dose of 1 mg/kg into the tail vein with a dose volume of 5 ml/kg. A total of 3 animal replicates are evaluated for each compound utilizing a terminal sampling approach. After 0.25 h post dosing, under anesthesia, 400 μL of blood and the whole brain are collected. Blood sample is centrifuged at 4° C. for 10 minutes at 1500 g; brain is weighted, homogenized using deionized water to give a final ratio of (1/2:w/v). Plasma and brain concentrations are measured by an exploratory LC-MS/MS method.
Individual brain over plasma concentration ratio is calculated for each animal, and geometric mean value is reported.

[2] = Homo sapiens, THP-1, LPS-primed

SMILES	IC50 (NLRP3 inflammasome; Homo sapiens, LPS-primed) [nM]	inhibition at 3 µM (TNF-α secretion; compound at 3 μM) [%]	inhibition at 10 µM (TNF-α secretion; compound at 10 μM) [%]	Kp at 0.25 h [1]	IC50 (NLRP3 inflammasome; [2]) [nM]	IC50 (NLRP3 inflammasome; LPS-primed) [nM]	TNF-a inhibition @ 3 μM (TNF-α secretion; compound at 3 μM)	TNF-a inhibition @ 10 μM (TNF-α secretion; compound at 10 μM)
C=O.CC(C)c1nn(CC(=O)N[C@@H]2CCCN(CC3CC3(F)F)C2)c(=O)c2cc3ccsc3n12 (stereo partly drawn) [Example 18, N-((3R)-1-((2,2-difluorocyclopropyl)methyl)piperidin-3-yl)-2-(8-isopropyl-5-oxothieno [3′,2′:4,5]pyrrolo[1,2-d][1,2,4]triazin-6(5H)-yl)acetamide compound with formaldehyde]	236	9.6	21.6	1.56				
CC(C)c1nn(CC(=O)N[C@@H]2CCCN(C3CC3)C2)c(=O)c2cc3cc(Cl)sc3n12.O=C(O)C(F)(F)F [Example 6, (R)-2-(2-chloro-8-isopropyl-5-oxothieno[3′,2′:4,5]pyrrolo[1,2-d][1,2,4]triazin-6(5H)-yl)-N-(1-cyclopropylpiperidin-3-yl)acetamide 2,2,2-trifluoroacetate]				7.58	158			
CC(C)c1nn(CC(=O)N[C@@H]2CCCN(C3CCC3)C2)c(=O)c2cc3cc(Cl)sc3n12.O=CO [Example 10, (R)-2-(2-chloro-8-isopropyl-5-oxothieno[3′,2′:4,5]pyrrolo[1,2-d][1,2,4]triazin-6(5H)-yl)-N-(1-cyclobutylpiperidin-3-yl)acetamide formate]		3	-11.9	5.84	101			
CC(C)c1nn(CC(=O)Nc2cncs2)c(=O)c2cc3ccsc3n12 [Example 2, 2-(8-isopropyl-5-oxothieno[3′,2′:4,5]pyrrolo[1,2-d][1,2,4]triazin-6(5H)-yl)-N-(thiazol-5-yl) acetamide]						577	3.3	−51.5
CC(C)c1nn(CC(=O)N[C@@H]2CCCN(CC3CC(F)(F)C3)C2)c(=O)c2cc3ccsc3n12.O=CO [Example 43, (R)—N-(1-((3,3-difluorocyclobutyl)methyl)piperidin-3-yl)-2-(8-isopropyl-5-oxothieno [3′,2′:4,5]pyrrolo[1,2-d][1,2,4]triazin-6(5H)-yl)acetamide formate]				0.42	133			
CN1CCC[C@@H](NC(=O)Cn2nc(C3CC3)n3c(cc4ccsc43)c2=O)C1 [Example 24, (R)-2-(8-cyclopropyl-5-oxothieno[3′,2′:4,5]pyrrolo[1,2-d][1,2,4]triazin-6(5H)-yl)-N-(1-methylpiperidin-3-yl)acetamide formate]		12	15.5		2890			
CC(C)c1nn(CC(=O)N[C@@H]2CCCN(C3CCC3)C2)c(=O)c2cc3ccsc3n12.O=CO [Example 11, (R)—N-(1-cyclobutylpiperidin-3-yl)-2-(8-isopropyl-5-oxothieno[3′,2′:4,5]pyrrolo[1,2-d][1,2,4]triazin-6(5H)-yl)acetamide formate]		20.1	-12.7	3.2	45			
CC(C)c1nn(CC(=O)N[C@@H]2CCCN(CCCF)C2)c(=O)c2cc3ccsc3n12.O=CO [Example 41, (R)—N-(1-(3-fluoropropyl)piperidin-3-yl)-2-(8-isopropyl-5-oxothieno[3′,2′:4,5]pyrrolo[1,2-d][1,2,4]triazin-6(5H)-yl)acetamide formate]				1.56	37			
CC(C)c1nn(CC(=O)N[C@@H]2CCCN(C[C@H](C)O)C2)c(=O)c2cc3ccsc3n12 [Example 3, N—((R)-1-((S)-2-hydroxypropyl)piperidin-3-yl)-2-(8-isopropyl-5-oxothieno[3′,2′:4,5]pyrrolo[1,2-d][1,2,4]triazin-6(5H)-yl)acetamide]		3.1	-8.2		335			
CC(C)c1nn(CC(=O)N[C@@H]2CCCN(C3CCC3)C2)c(=O)c2cc3cc(Br)sc3n12 [Example 31, (R)-2-(2-bromo-8-isopropyl-5-oxothieno[3′,2′:4,5]pyrrolo[1,2-d][1,2,4]triazin-6(5H)-yl)-N-(1-cyclobutylpiperidin-3-yl)acetamide 2,2,2-trifluoroacetate]		10.5	32.5		30			
O=C(Cn1nc(C2CC2)n2c(cc3ccsc32)c1=O)N[C@@H]1CCCN(C2CCC2)C1 [Example 20, (R)—N-(1-cyclobutylpiperidin-3-yl)-2-(8-cyclopropyl-5-oxothieno[3′,2′:4,5]pyrrolo[1,2-d][1,2,4]triazin-6(5H)-yl)acetamide]		-6.1	-26		185			
CC(C)c1nn(CC(=O)NC2CCCN(C(C)(C)C)C2)c(=O)c2cc3cc(Br)sc3n12 (centres unmarked) [Example 59, 2-(4-bromo-12-isopropyl-9-oxo-3-thia-1,10,11-triazatricyclo[6.4.0.02,6]dodeca-2(6),4,7,11-tetraen-10-yl)-N-(1-tert-butyl-3-piperidyl)acetamide]				1.15	34			

From patent US20250129091A1, “THIENOPYRROLOTRIAZINE COMPOUNDS, THEIR PREPARATION AND THEIR THERAPEUTIC USE” (Sanofi, priority 2022, published 2025)
